The conditions of series [1]: cited from earlier work.
A short description of series [2]: Parallel artificial membrane permeability assay (PAMPA). The note with it: pH 7.4. Background: The PAMPA barrier holds no transporters, so it reflects passive diffusion.
Procedure: An artificial membrane consisting of phosphatidylcholine dissolved in n-dodecane was employed to control equilibration between two connected aqueous compartments, of which one contained the compound of interest. This model for compound permeation through a cell membrane was incubated, and the resulting concentration in the acceptor compartment was quantified spectroscopically.
A general literature-known principle was used [11]. Propranolol hydrochloride was sourced from Changzou Yabang Pharmaceutical (Fagron GmbH & Co. KG). Candesartan cilexetil was sourced as a chemical reference standard from the EDQM (catalogue code Y0001388).
Incubation setup consisted of donor (top) plate (Sigma Aldrich, MAIPNTR10), 5 µL artificial membrane
(1 % (w/v) L-α-phosphatidyl choline, Sigma Aldrich P3556, in n-dodecane, Sigma Aldrich 8205430100),
transparent measurement plate (Greiner UV-Star®, 655801), Tecan Spark 10M® well plate reader, 200 µL
A short description of series [3]: Aqueous solubility observed in PAMPA set-up. The class given is physicochemical. The following applies: buffered aqueous solution pH 7.4, 5% DMSO. On the procedure:
acceptor (bottom) plate (Greiner, 655074). Measurement setup for direct spectroscopy consisted of UV- […]
sample volume, λ = 200–650 nm. […]
elution (0.7 mL/min). Injection volume was 100 µL. Areas of peaks in the chromatogram (detection-λ = 210 nm) were used to calculate the AUCs. Retention time and mass spectrum recorded in positive ionization mode were used to assign species. Analysis was performed using MestreNova. […]
donor plate. This was sealed (Greiner, 676070, Viewseal sealer). 400 µL of acceptor solution was applied to the acceptor plate. Incubation setup was assembled and left for 7 h. After this time, acceptor and reference solutions were analyzed.
The acceptor solutions of those were measured
P௔௣௣ = −(௏ವ ା௏ಲ )∗஺∗௧ eq. 6

The target of series [4] is T1, Rhodesain (TbCatL) (Trypanosoma brucei rhodesiense, UniProt Q95PM0).
T1 construct: stably transformed with the rhodesain ΔC gene cloned into the pPICZαA vector; made in house; host or cells: Pichia pastoris X-33 (pPICZαA, secreted into the culture supernatant)
The note with it: lead compound, published data ref 17; cited from earlier work.

Series [5] deals with rhodesain (Trypanosoma brucei rhodesiense, UniProt Q95PM0). Details: stably transformed with the rhodesain ΔC gene cloned into the pPICZαA vector; made in house; host or cells: Pichia pastoris X-33 (pPICZαA, secreted into the culture supernatant); method as in PMID 32210166, PMID 34378914. The note with it: cited from earlier work.
In series [6] the test system is Trypanosoma brucei. Details: method as in PMID 32210166. The note with it: cell cultures, free acid; cited from earlier work.

Like-named read-outs stand apart in the source and are kept apart here.

The Papp is the rate of passage across a membrane or cell layer, normalised by area and donor concentration. A lower Papp goes with poor permeation. The term Ki denotes the dissociation constant of the complex between target and ligand, obtained from inhibition or displacement. The EC50 is the concentration needed to bring the measured effect to its halfway point.

Chain of rhodesain (Q95PM0 entry or part of it): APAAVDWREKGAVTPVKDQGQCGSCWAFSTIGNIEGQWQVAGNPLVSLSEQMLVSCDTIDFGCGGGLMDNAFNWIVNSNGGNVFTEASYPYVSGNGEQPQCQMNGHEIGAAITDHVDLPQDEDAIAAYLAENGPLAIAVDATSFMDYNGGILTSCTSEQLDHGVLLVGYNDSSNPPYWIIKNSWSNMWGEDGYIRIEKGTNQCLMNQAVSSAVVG
T1 sequence (Q95PM0 entry or part of it): as above

On to `CCOc1nc2cccc(C(=O)OC(C)OC(=O)OC3CCCCC3)c2n1Cc1ccc(-c2ccccc2-c2nnn[nH]2)cc1` (centres unmarked) [Candesartan cilexetil, reference compound], for which the “Lit. Papp” value in series [1] (literature value ref 37) was 0.6 [37] ×10^−6 cm/s. This compound also returned a Papp at 7 h, 100 µM in series [2] of 1.3 ± 0.2 ×10⁻⁶ cm/s.

As to `CC(C)C[C@H](NC(=O)[C@H](Cc1ccccc1)Nc1ccc([N+](=O)[O-])c([N+](=O)[O-])c1)C(=O)OC(C)(C)C` [Compound 20], the aqueous solubility result in series [3] was “poor aqueous solubility”. This compound yielded a Papp at 7 h, 100 µM in series [2] of 9.3 ± 0.7 ×10⁻⁶ cm/s.

For `CC(C)C[C@H](NC(=O)[C@H](Cc1ccccc1)Nc1cc(F)c([N+](=O)[O-])cc1[N+](=O)[O-])C(=O)OC(C)(C)C` [Compound 21], the aqueous solubility result in series [3] was “poor aqueous solubility”. Moreover, in series [2], the Papp at 7 h, 100 µM amounted to 3.4 ± 1.8 ×10⁻⁶ cm/s.

Take `CC(C)C[C@H](NC(=O)[C@H](Cc1ccccc1)Nc1cc([N+](=O)[O-])c([N+](=O)[O-])cc1F)C(=O)O` [Compound I]: the Ki in series [4] is 0.004 ± 0.0013 µM. In series [5], the “Adduct with rhodesain in MALDI-TOF-MS” value is reported as “no adduct could be detected”. Besides, in series [6], the EC50 was 20 µM.

As to `CC(C)NCC(O)COc1cccc2ccccc12` (centres unmarked) [Propranolol, reference compound], in series [1] (literature value ref 35, 36), the “Lit. Papp” value was 8–14 [35, 36] ×10^−6 cm/s. The compound also yielded a Papp at 7 h, 100 µM in series [2] of 9.9 ± 1 ×10⁻⁶ cm/s.

Values taken from PMC11173422, “Substitution-Induced Mechanistic Switching in SNAr-Warheads for Cysteine Proteases” (Molecules, 2024).
